According to PubChem BioAssay (NCI):
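48-hour exposure; five concentrations; linearly interpolated endpoints. GI50 marks 50% less growth. TGI: concentration producing complete growth inhibition.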

What was measured:
Experiment in all cases: inhibition of tumour cell growth, NCI panel, 48 h
CAKI-1 renal = system: CAKI-1 renal
COLO 205 colon = system: COLO 205 colon
HOP-92 NSCLC = system: HOP-92 NSCLC
IGROV1 ovarian = system: IGROV1 ovarian
MALME-3M melanoma = system: MALME-3M melanoma
NCI-H23 lung = system: NCI-H23 lung
NCI-H460 lung = system: NCI-H460 lung
RPMI-8226 leukemia = system: RPMI-8226 leukemia
SNB-75 CNS = system: SNB-75 CNS
SW-620 colon = system: SW-620 colon

SMILES | GI50 (CAKI-1 renal) | TGI (CAKI-1 renal) | GI50 (COLO 205 colon) | TGI (COLO 205 colon) | GI50 (HOP-92 NSCLC) | TGI (HOP-92 NSCLC) | GI50 (IGROV1 ovarian) | TGI (IGROV1 ovarian) | GI50 (MALME-3M melanoma) | TGI (MALME-3M melanoma) | GI50 (NCI-H23 lung) | TGI (NCI-H23 lung) | GI50 (NCI-H460 lung) | TGI (NCI-H460 lung) | GI50 (RPMI-8226 leukemia) | TGI (RPMI-8226 leukemia) | GI50 (SNB-75 CNS) | TGI (SNB-75 CNS) | GI50 (SW-620 colon) | TGI (SW-620 colon)
Nc1nc(/C=C\c2ccc([N+](=O)[O-])s2)nc(N2CCCC2)n1 | 7.1 µM | 24.6 µM | 0.524 µM | 3.5 µM | 6.73 µM | 18.6 µM | 4.72 µM | 17.2 µM | 12.3 µM | 28.5 µM | 5.84 µM | 18.6 µM | 3.68 µM | 16.1 µM | 1.26 µM | 4.39 µM | 15.1 µM | 44 µM | 2.76 µM | 24 µM
CNCC#Cc1c(F)ccc2c1/C(=C/c1[nH]ccc1OC)C(=O)N2 | 0.0238 µM | 0.521 µM | 0.113 µM | 0.48 µM | 0.669 µM | 1.96 µM | 0.317 µM | 3.15 µM | 0.608 µM | 2.55 µM | 0.283 µM | 1.26 µM | 0.124 µM | 2.44 µM | 0.322 µM | 1.47 µM | 0.0786 µM | 1.81 µM | 0.136 µM | 2.38 µM
COc1cc2c(c(OC)c1OC)-c1ccc(SC)c(=O)cc1C(NC=O)CC2 (configuration not stated) | – | > 83 µM | – | < 0.01 µM | – | > 100 µM | – | > 85.5 µM | – | > 83 µM | – | 50 µM | – | – | – | 47.1 µM | – | > 21.5 µM | – | > 100 µM
Cc1ccc(NC(=O)CC2CC2)cc1-c1ccc(C(=O)NCC2CC2)cc1 | > 25 µM | > 25 µM | > 25 µM | > 25 µM | 8.45 µM | > 25 µM | > 25 µM | > 25 µM | > 25 µM | > 25 µM | > 25 µM | > 25 µM | > 25 µM | > 25 µM | > 25 µM | > 25 µM | > 25 µM | > 25 µM | > 25 µM | > 25 µM
CS(=O)(=O)CCNCc1nc(-c2ccc3ncnc(Nc4ccc(OCc5cccc(C(F)(F)F)c5)cc4)c3c2)cs1 | > 25 µM | > 25 µM | > 23.9 µM | > 25 µM | 3.68 µM | 15.8 µM | 5.4 µM | > 25 µM | 14 µM | > 25 µM | 12.5 µM | > 25 µM | > 25 µM | > 25 µM | > 25 µM | > 25 µM | 4.86 µM | 15.7 µM | > 25 µM | > 25 µM
COc1cc(-n2cc(-c3ccc(F)cc3)[nH]c2=O)cc(OC)c1OC | > 100 µM | > 100 µM | > 100 µM | > 100 µM | > 100 µM | > 100 µM | > 100 µM | > 100 µM | > 100 µM | > 100 µM | > 100 µM | > 100 µM | > 100 µM | > 100 µM | > 100 µM | > 100 µM | 31.5 µM | 86.3 µM | > 100 µM | > 100 µM
COc1cc(F)ccc1-c1ncnc(Nc2cccc(CS(C)(=N)=O)c2)n1 (configuration not stated) | 1.92 µM | > 100 µM | 0.4 µM | 2.18 µM | 0.671 µM | 4.19 µM | 0.65 µM | > 100 µM | 2.73 µM | 9.66 µM | 0.679 µM | 7.14 µM | 1.79 µM | > 100 µM | 3.17 µM | 61 µM | 0.434 µM | 3.46 µM | 0.673 µM | > 100 µM
O=C(CC1(O)C(=O)N(Cc2ccccc2)c2ccc(F)cc21)c1ccc(C(=O)NCC2CCC3(CC2)OOC2(CCCCC2)OO3)cc1 (configuration not stated) | 0.464 µM | 0.954 µM | 0.728 µM | 2.02 µM | 0.186 µM | 0.378 µM | 0.236 µM | 0.62 µM | 0.226 µM | 0.54 µM | 0.246 µM | 0.634 µM | 0.21 µM | 0.487 µM | 0.365 µM | 1.92 µM | 1.48 µM | 3.19 µM | 1.84 µM | 4.3 µM
C=C(C)[C@@H]1CC[C@]2(C)[C@H](CC=C3[C@@H]4CC(C)(C)CC[C@]4(C(N)=O)CC[C@]32C)[C@@]1(C)CCC#N | 3.01 µM | > 100 µM | 2.6 µM | 7.36 µM | 2.37 µM | 6.62 µM | 3.92 µM | > 100 µM | 2.24 µM | 5.91 µM | 3.66 µM | > 100 µM | 2.93 µM | 8.62 µM | 1.94 µM | 5.54 µM | 2.33 µM | 9.71 µM | 3.21 µM | 30.1 µM
NCCNc1c2c(c(NCCN)c3[nH]ccc13)C(=O)c1ccccc1C2=O | < 0.042 µM | 0.777 µM | 0.28 µM | 5.8 µM | 0.427 µM | 4.21 µM | 1.2 µM | > 100 µM | 0.177 µM | 0.658 µM | 0.0741 µM | 0.475 µM | 0.766 µM | 2.88 µM | 0.278 µM | 1.21 µM | 0.317 µM | 0.945 µM | 0.216 µM | 1.09 µM
COc1cc2c3c(n(C)c(=O)c2cc1OC)-c1cc2c(cc1/C3=C\CN)OCO2 | 0.132 µM | 1.81 µM | 0.156 µM | – | 2.09 µM | > 77.1 µM | 1.35 µM | > 100 µM | 2.17 µM | > 40.4 µM | 0.249 µM | 8.77 µM | 0.0879 µM | > 24.1 µM | 0.307 µM | 4.9 µM | 0.154 µM | 59.7 µM | – | > 41.3 µM
O=C(/C=C/c1cccc2ccccc12)c1ccccc1Cl | – | 27.9 µM | – | > 100 µM | – | 26.4 µM | – | 31 µM | – | 30.2 µM | – | 28.5 µM | – | 29.2 µM | – | 47.3 µM | – | 30.5 µM | – | 17.6 µM
